# Test results from patent US7994185B2, “Benzene sulfonamide thiazole and oxazole compounds” (Glaxo Smith Kline LLC, priority 2008, dated 2011).
# Where a name gives a salt, the structure may show the parent alone. Read-outs that look alike come from different tables or passages of the source.
# What was measured:
# [1] = target: T1, BRAFV600E full-length (amino acids 2-766) (Homo sapiens, UniProt P15056, V600E); experiment: B-Raf Accelerated MEK ATPase assay (BRAMA); assay type: biochemical
# T1 construct: His6-tagged BRAFV600E full-length (amino acids 2-766); His6; made in house; host or cells: baculovirus expression system (insect cells)
# Protocol: Compounds of the present invention were tested for B-Raf protein serine kinase inhibitory activity in a B-Raf Accelerated MEK ATPase assay (BRAMA). […] The BRAMA assay is a high sensitivity assay which measures an intrinsic MEK-mediated ATP hydrolysis uncoupled from downstream ERK phosphorylation by coupling the formation of ADP to NADH oxidation through the enzymes pyruvate kinase and lactate dehydrogenase. When ADP production is initiated by addition of catalytic amounts of an activated Raf enzyme and non-phosphorylated MEK, one observes robust ADP production concomitant with Raf-mediated phosphorylation of MEK. The method is disclosed in: C. Rominger, M. Schaber, E. May. Assay for B-Raf Activity Based on Intrinsic MEK ATPase Activity.
# [2] = tested on: Human colon tumor cells (Colo205); experiment: Cell growth inhibition assay (CellTiter-Glo), Colo205; assay type: cell-based
# Protocol: Human colon tumor cells (Colo205) were cultured in RPMI (Mediatech 50-020-PB) containing 10% FBS and 1% penicillin-streptomycin.
# The next day, compounds were diluted as follow: For 96-well assays, 13.5 μL of compound in DMSO were diluted using nine (9) serial 1:3 dilutions of 4.5 μL in 9 μL of DMSO. Medium (270 μL/well of RPMI with 10% FBS and 1% penicillin-streptomycin) was added to the plates. Aliquots (7 μL) were added to cells in the final assay giving a final DMSO concentration of 0.2%. For 384-well assays, 15 μL of compound in DMSO were diluted using nine (9) serial 1:3 dilutions of 5 μL in 10 μL of DMSO, followed by a further dilution of 5 μL of compound with 95 μL of medium, of which 2 μL were added to cells in the final assay giving a final DMSO concentration of 0.2%. Cells were incubated at 37° C., 5% CO2 for 3 days.
# Total ATP was measured (as a surrogate estimate of cell number) using CellTiter-Glo® reagent (Promega G7571). Briefly, plates were removed from the incubator and allowed to equilibrate to room temperature for 30 minutes. CellTiter-Glo® (25 μL or 55 μL for 384-well or 96-well assays, respectively) reagent was added to each well and plates were shaken on an orbital plate shaker for 2 minutes. Plates were incubated without shaking for a further 30 minutes and read on an LJL Analyst GT reader in luminometer mode with an integration time of 0.5 seconds per well. Percent inhibition of cell growth was calculated relative to DMSO vehicle-treated control wells.
# [3] = tested on: Human melanoma cancer cells (SK-MEL-28); experiment: Cell growth inhibition assay (CellTiter-Glo), SK-MEL-28; assay type: cell-based
# [4] = B-Raf Activity, Table 1a, highest pIC50 for the one or more runs, categorized
# [5] = Table 1b, later runs, average pIC50 for the one or more runs, categorized, read-out: B-Raf pIC50 (converted)
# [6] = COLO 205, 72 h, Table 2a, 3 days incubation, read-out: Activity in Colo205 Tumor Cells
# [7] = COLO 205, Table 2b, later runs, average for the one or more runs, categorized, read-out: IC50 for Colo205
# [8] = SK-MEL-28, 72 h, Table 3a, 3 days incubation, read-out: Activity in SK-MEL-28 Tumor Cells
# [9] = SK-MEL-28, Table 3b, later runs, average for the one or more runs, categorized, read-out: IC50 for SK-MEL-28
# [10] = B-Raf pIC50, Table 1b, later runs, average pIC50 for the one or more runs, categorized
# T1 sequence (P15056 2-766 V600E): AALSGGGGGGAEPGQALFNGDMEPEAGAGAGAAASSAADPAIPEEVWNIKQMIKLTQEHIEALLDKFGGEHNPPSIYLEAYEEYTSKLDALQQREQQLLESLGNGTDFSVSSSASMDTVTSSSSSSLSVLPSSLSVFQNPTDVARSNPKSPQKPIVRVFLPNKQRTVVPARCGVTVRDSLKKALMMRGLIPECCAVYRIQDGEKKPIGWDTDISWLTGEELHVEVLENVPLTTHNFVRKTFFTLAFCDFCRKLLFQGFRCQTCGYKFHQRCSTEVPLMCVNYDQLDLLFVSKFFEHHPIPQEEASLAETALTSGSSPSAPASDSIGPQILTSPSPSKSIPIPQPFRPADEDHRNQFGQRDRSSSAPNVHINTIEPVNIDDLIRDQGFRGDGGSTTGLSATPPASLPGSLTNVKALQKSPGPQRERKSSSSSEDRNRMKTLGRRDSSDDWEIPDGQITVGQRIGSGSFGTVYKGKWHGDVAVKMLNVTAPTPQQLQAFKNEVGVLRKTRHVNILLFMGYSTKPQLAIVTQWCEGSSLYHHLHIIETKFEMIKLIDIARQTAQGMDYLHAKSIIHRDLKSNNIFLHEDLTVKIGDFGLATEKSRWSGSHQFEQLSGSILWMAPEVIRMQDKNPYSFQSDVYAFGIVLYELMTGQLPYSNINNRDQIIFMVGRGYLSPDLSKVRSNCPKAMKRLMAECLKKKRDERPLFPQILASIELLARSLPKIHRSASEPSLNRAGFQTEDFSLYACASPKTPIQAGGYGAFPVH
SMILES,"IC50 [1, 4]","IC50 [1, 5]","IC50 [2, 6]","IC50 [2, 7]","IC50 [3, 8]","IC50 [3, 9]","IC50 [1, 10]",IC50 [1]
CC(C)c1nc(-c2ccc(F)c(NS(=O)(=O)c3c(F)cccc3F)c2)c(-c2ccnc(N[C@H]3CC[C@H](NS(C)(=O)=O)CC3)n2)s1 [Example 141],< 100 nM,3.16 to 31.6 nM,< 100 nM,< 100 nM,< 100 nM,< 100 nM,–,–
"CCNc1nccc(-c2sc(C(C)C)nc2-c2ccc(F)c(NS(=O)(=O)c3c(F)cccc3F)c2)n1 [Example 9, N-{5-[5-[2-(Ethylamino)-4-pyrimidinyl]-2-(1-methylethyl)-1,3-thiazol-4-yl]-2-fluorophenyl}-2,6-difluorobenzenesulfonamide]",100 to 1000 nM,–,> 1000 nM,1000 to 10000 nM,> 1000 nM,1000 to 10000 nM,31.6 to 1000 nM,–
COCCCNc1nccc(-c2sc(C(C)C)nc2-c2ccc(F)c(NS(=O)(=O)c3c(F)cccc3F)c2)n1 [Example 168],–,–,100 to 1000 nM,100 to 1000 nM,100 to 1000 nM,100 to 1000 nM,31.6 to 1000 nM,–
CC(C)c1nc(-c2ccc(F)c(NS(=O)(=O)c3cc(F)ccc3F)c2)c(-c2ccnc(NC3CCN(C)CC3)n2)s1 [Example 123],< 100 nM,–,100 to 1000 nM,100 to 1000 nM,> 1000 nM,1000 to 10000 nM,31.6 to 1000 nM,–
CC(C)c1nc(-c2ccc(F)c(NS(=O)(=O)c3cc(F)ccc3F)c2)c(-c2ccnc(NC3CCS(=O)(=O)CC3)n2)s1 [Example 205],< 100 nM,3.16 to 31.6 nM,100 to 1000 nM,100 to 1000 nM,100 to 1000 nM,100 to 1000 nM,–,–
CC(C)CNc1nccc(-c2sc(C(C)(C)C)nc2-c2cccc(NS(=O)(=O)c3c(F)cccc3F)c2F)n1 [Example 134],< 100 nM,3.16 to 31.6 nM,100 to 1000 nM,100 to 1000 nM,100 to 1000 nM,100 to 1000 nM,–,–
Nc1nccc(-c2sc(N3CCOCC3)nc2-c2cccc(NS(=O)(=O)c3cc(F)ccc3F)c2)n1 [Example 200],< 100 nM,3.16 to 31.6 nM,100 to 1000 nM,100 to 1000 nM,100 to 1000 nM,100 to 1000 nM,–,–
"Cn1ccnc1S(=O)(=O)Nc1cccc(-c2nc(C(C)(C)C)sc2-c2ccnc(N)n2)c1F [Example 287, N-{3-[5-(2-amino-4-pyrimidinyl)-2-(1,1-dimethylethyl)-1,3-thiazol-4-yl]-2-fluorophenyl}-1-methyl-1H-imidazole-2-sulfonamide hydrochloride]",–,3.16 to 31.6 nM,–,100 to 1000 nM,–,100 to 1000 nM,–,–
"CC(C)CNc1nccc(-c2sc(N3CCOCC3)nc2-c2cccc(NS(=O)(=O)c3ccco3)c2F)n1 [Example 43, N-{2-fluoro-3-[5-{2-[(2-methylpropyl)amino]-4-pyrimidinyl}-2-(4-morpholinyl)-1,3-thiazol-4-yl]phenyl}-2-furansulfonamide]",< 100 nM,–,100 to 1000 nM,100 to 1000 nM,100 to 1000 nM,100 to 1000 nM,≤ 3.16 nM,–
"Nc1nccc(-c2sc(N3CCOCC3)nc2-c2cccc(NS(=O)(=O)C3CC3)c2F)n1 [Example 51, N-{3-[5-(2-Amino-4-pyrimidinyl)-2-(4-morpholinyl)-1,3-thiazol-4-yl]-2-fluorophenyl}cyclopropanesulfonamide]",–,–,> 1000 nM,1000 to 10000 nM,> 1000 nM,1000 to 10000 nM,–,> 1000 nM
CC(C)c1nc(-c2cccc(NS(=O)(=O)c3cc(F)ccc3F)c2F)c(-c2ccnc(NCCCNC(=O)OC(C)(C)C)n2)s1 [Example 193],< 100 nM,3.16 to 31.6 nM,100 to 1000 nM,100 to 1000 nM,100 to 1000 nM,100 to 1000 nM,–,–
CC(C)(C)c1nc(-c2cccc(NS(=O)(=O)c3cc(F)ccc3F)c2F)c(-c2ccnc(CCN3CCOCC3)n2)s1 [Example 215],< 100 nM,3.16 to 31.6 nM,< 100 nM,< 100 nM,< 100 nM,< 100 nM,–,–
"CC(C)c1nc(-c2ccc(F)c(NS(=O)(=O)c3c(F)cccc3F)c2)c(-c2ccnc(NCCCN3CCCC3=O)n2)s1 [Example 95, 2,6-Difluoro-N-{2-fluoro-5-[2-(1-methylethyl)-5-(2-{[3-(2-oxo-1-pyrrolidinyl)propyl]amino}-4-pyrimidinyl)-1,3-thiazol-4-yl]phenyl}benzenesulfonamide]",< 100 nM,–,100 to 1000 nM,100 to 1000 nM,100 to 1000 nM,100 to 1000 nM,31.6 to 1000 nM,–
Nc1nccc(-c2sc(C3CCC3)nc2-c2cccc(NS(=O)(=O)c3c(F)cccc3F)c2F)n1 [Example 118],< 100 nM,–,100 to 1000 nM,100 to 1000 nM,100 to 1000 nM,100 to 1000 nM,≤ 3.16 nM,–
CC(C)c1nc(-c2ccc(F)c(NS(=O)(=O)c3c(F)cccc3F)c2)c(-c2ccnc(NCCN(C)C)n2)s1 [Example 161],100 to 1000 nM,–,> 1000 nM,1000 to 10000 nM,> 1000 nM,1000 to 10000 nM,31.6 to 1000 nM,–
CC(C)c1nc(-c2ccc(F)c(NS(=O)(=O)c3c(F)cccc3F)c2)c(-c2ccnc(NCCF)n2)s1 [Example 178],< 100 nM,–,100 to 1000 nM,100 to 1000 nM,100 to 1000 nM,100 to 1000 nM,31.6 to 1000 nM,–
"CC(C)(C)c1nc(-c2cccc(NS(=O)(=O)c3ccco3)c2F)c(-c2ccnc(N)n2)s1 [Example 231, N-{3-[5-(2-amino-4-pyrimidinyl)-2-(1,1-dimethylethyl)-1,3-thiazol-4-yl]-2-fluorophenyl}-2-furansulfonamide]",–,–,–,< 100 nM,–,< 100 nM,≤ 3.16 nM,–
"CC(C)CNc1nccc(-c2sc(C(C)(C)C)nc2-c2ccc(F)c(NS(=O)(=O)c3c(F)cccc3F)c2)n1 [Example 46, N-[5-(2-(1,1-Dimethylethyl)-5-{2-[(2-methylpropyl)amino]-4-pyrimidinyl}-1,3-thiazol-4-yl)-2-fluorophenyl]-2,6-difluorobenzenesulfonamide]",< 100 nM,3.16 to 31.6 nM,100 to 1000 nM,100 to 1000 nM,100 to 1000 nM,100 to 1000 nM,–,–
"CC(C)(C)c1nc(-c2cccc(NS(=O)(=O)c3cccs3)c2F)c(-c2ccnc(N)n2)s1 [Example 232, N-{3-[5-(2-amino-4-pyrimidinyl)-2-(1,1-dimethylethyl)-1,3-thiazol-4-yl]-2-fluorophenyl}-2-thiophenesulfonamide]",–,–,–,< 100 nM,–,< 100 nM,≤ 3.16 nM,–
CC(C)c1nc(-c2ccc(F)c(NS(=O)(=O)c3cc(F)ccc3F)c2)c(-c2ccnc(NCCCS(C)(=O)=O)n2)s1 [Example 204],< 100 nM,3.16 to 31.6 nM,< 100 nM,< 100 nM,< 100 nM,< 100 nM,–,–
"Nc1nccc(-c2sc(C3CCOCC3)nc2-c2cccc(NS(=O)(=O)c3ccoc3)c2Cl)n1 [Example 265, N-{3-[5-(2-amino-4-pyrimidinyl)-2-(tetrahydro-2H-pyran-4-yl)-1,3-thiazol-4-yl]-2-chlorophenyl}-3-furansulfonamide]",–,–,–,–,–,< 100 nM,≤ 3.16 nM,–
"CN(C)c1nc(-c2cccc(NS(=O)(=O)c3c(F)cccc3F)c2)c(-c2ccnc(N)n2)s1 [Example 112, N-{3-[5-(2-Amino-4-pyrimidinyl)-2-(dimethylamino)-1,3-thiazol-4-yl]phenyl}-2,6-difluorobenzenesulfonamide]",100 to 1000 nM,–,–,1000 to 10000 nM,–,–,31.6 to 1000 nM,–
